Experiment [1] concerns patients with PH, WHO functional class III or IV. Kind of experiment: Expanded Study: 16-week placebo-controlled study in 213 PH patients. The format is in vivo, human. How it is done:
On the basis of the results of the above study 2, the clinical study is expanded with additional 213 PH patients for at least 16 weeks. The study is conducted with patients with PH, WHO functional class III or IV. Two hundred thirteen patients are randomized to receive either 200 mg bid or 400 mg bid of thalidomide or placebo in a 1:1:1 ratio. The primary endpoint, a 6-minute walk distance, is evaluated at 16 weeks. The treated patients walk 36.4 meters further at 16 weeks compared to a 7.8 meter reduction in walk distance in the placebo group, for a treatment effect of 44.2 meters. Clinical worsening, defined by death, premature withdrawal from study, hospitalization for worsening of PH or institution of epoprostenol, occur in 37% of placebo-treated patients, compared with 11% of the patients treated with the compound of the invention.

Experiment [2] concerns patients with PH (NYHA functional class III). Kind of experiment: Clinical Study 2: 12-week placebo-controlled study in patients with PH. Format: in vivo, human. How it is done:
In one embodiment of the invention, thalidomide is administered in a single or divided daily doses in an amount of from about 200 to about 800 mg/day. The compound is administered to patients with PH for 12 weeks, who are subsequently evaluated for a decline in walk distance, dyspnea score, functional class, pulmonary hemodynamic response. The first study enrolls 32 patients with PH. Patients are all in modified New York Heart Association functional class III at the onset of the study. Patents are maximally treated and are stable on conventional therapy, including calcium channel antagonists and diuretics. Two thirds of patients receive 400 mg of thalidomide for four weeks followed by 800 mg of the compound for eight weeks. One third of patients receive placebo. The primary efficacy endpoint is a 6-minute walk distance. Patients receiving the compound of the invention walk an average of 70 meters farther after 12 weeks while placebo patients have a decline in walk distance. In addition, the treated patients have improvements in dyspnea score and functional class compared with placebo patients. Pulmonary hemodynamic measurements reveal decreases in pulmonary arterial pressure and pulmonary vascular resistance, and increase in cardiac output after 12 weeks of the treatment, compared with worsening of pulmonary hemodynamics in placebo patients. All these changes in treated patients are highly significant compared with placebo.

Where [3] appears, read: 12 weeks, compared with placebo patients.
The mark [4] stands for this setting: after 12 weeks of treatment, compared with placebo.

`O=C1CCC(N2C(=O)c3ccccc3C2=O)C(=O)N1` (racemic) [thalidomide, 2-(2,6-dioxo-3-piperidinyl)-1H-isoindole-1,3(2H)-dione]: the “6-minute walk distance, increase” value in experiment [1] (at 16 weeks, 200 mg bid or 400 mg bid) amounted to 36.4 meters. Besides, the “6-minute walk distance, treatment effect versus placebo” value in experiment [1] (at 16 weeks, treated minus placebo (7.8 meter reduction)) was determined as 44.2 meters. Also, the “clinical worsening (death, premature withdrawal, hospitalization for worsening of PH or institution of epoprostenol), share of patients” value in experiment [1] (treated patients, 37% in placebo-treated patients) was 11%. For the same compound, the functional class entry in experiment [1] (treated versus placebo patients) is listed as “improved significantly more”. In addition, in experiment [2] (setting [3]), the dyspnea score result is “improvements” and the functional class result is given as “improvements”. Also, in experiment [2] (setting [4]), the cardiac output entry was “increase”, the pulmonary arterial pressure entry is reported as “decreases” and the pulmonary vascular resistance result was “decreases”. Moreover, the “6-minute walk distance, average increase” value in experiment [2] (after 12 weeks, 400 mg for four weeks then 800 mg for eight weeks, PH patients) was 70 meters.
